Measured values: ChEMBL document CHEMBL5055665, “Discovery of the Triazolo[1,5-a]Pyrimidine-Based Derivative WS-898 as a Highly Efficacious and Orally Bioavailable ABCB1 Inhibitor Capable of Overcoming Multidrug Resistance” (J Med Chem, 2021)

Legend:
[1] = system: KB-C2; assay: Reversal of resistance to paclitaxel-induced cytotoxicity in human KB-C2 cells assessed as reduction in paclitaxel IC50 at 4 uM preincubated for 4 hrs followed by paclitaxel addition and measured after 72 hrs by MTT assay (reference value: 1886.37 +/- 243.05 nM); type: functional, cell-based
[2] = system: HEK293; assay: Reversal of resistance to paclitaxel-induced cytotoxicity in human HEK293/ABCB1 cells assessed as reduction in paclitaxel IC50 at 4 uM preincubated for 4 hrs followed by paclitaxel addition and measured after 72 hrs by MTT assay (reference value: 91.40 +/- 23.32 nM); type: functional, cell-based
[3] = system: SW-620; assay: cells; conditions: Homo sapiens
[4] = system: HEK293; assay: Reversal of resistance to paclitaxel-induced cytotoxicity in human HEK293/pcDNA3.1 cells assessed as reduction in paclitaxel IC50 at 4 uM preincubated for 4 hrs followed by paclitaxel addition and measured after 72 hrs by MTT assay (reference value: 1.93 +/- 0.06 nM); type: functional, cell-based
[5] = system: KB 3-1; assay: Reversal of resistance to paclitaxel-induced cytotoxicity in human KB 3-1 cells assessed as reduction in paclitaxel IC50 at 4 uM preincubated for 4 hrs followed by paclitaxel addition and measured after 72 hrs by MTT assay (reference value: 4.54 +/- 1.59 nM); type: functional, cell-based
[6] = system: SW-620; assay: cells; conditions: Homo sapiens; remark: listed apart in the source
[7] = system: SW-620; assay: Antitumor activity against human SW-620/AD300 cells xenografted in BALB/c nude mouse assessed as tumor growth inhibition at 5 mg/kg, iv administered once ever 3 days for 21 days; type: functional; design: scale not given: the % may be the effect or the level left
[8] = system: Mus musculus; assay: Toxicity in BALB/c mouse xenografted with human SW-620/AD300 cells assessed as mortality at 5 mg/kg, iv administered once every 3 days; type: organism-based; conditions: in vivo, 72 h, time 3 day
[9] = system: Mus musculus; assay: Toxicity in BALB/c mouse xenografted with human SW-620/AD300 cells assessed as change in body weight at 5 mg/kg, iv administered once every 3 days; type: organism-based; conditions: in vivo, 72 h, time 3 day

IC50 [3]	IC50 [6]	Structure (SMILES)	IC50 [1]	IC50 [2]	IC50 [4]	IC50 [5]	Activity [7]	Activity [8]	Activity [9]
7.11 nM	300 nM	COc1ccc(CCN(C)CCCC(C#N)(c2ccc(OC)c(OC)c2)C(C)C)cc1OC (centres undefined)	7.05 nM	10.4 µM	1.62 nM	3.84 nM	–	–	–
–	–	CC(=O)O[C@H]1C(=O)[C@@]2(C)[C@H]([C@H](OC(=O)c3ccccc3)[C@]3(O)C[C@H](OC(=O)[C@H](O)[C@@H](NC(=O)c4ccccc4)c4ccccc4)C(C)=C1C3(C)C)[C@]1(OC(C)=O)CO[C@@H]1C[C@@H]2O [PACLITAXEL]	–	–	–	–	32%	Non-Toxic	Non-Toxic
